17 substances from US5258492A, “LHRH analogues with cytotoxic moieties at the sixth position” (The Administrators of the Tulane Educational Fund, priority 1991, dated 1993) can be followed below.

The target in assay [1] is T1, membrane receptors of pituitary of male rats (Rattus norvegicus, UniProt P30969).
T1 construct: from tissue; host or cells: pituitary of male rats (membranes)
T1 sequence (P30969 1-327): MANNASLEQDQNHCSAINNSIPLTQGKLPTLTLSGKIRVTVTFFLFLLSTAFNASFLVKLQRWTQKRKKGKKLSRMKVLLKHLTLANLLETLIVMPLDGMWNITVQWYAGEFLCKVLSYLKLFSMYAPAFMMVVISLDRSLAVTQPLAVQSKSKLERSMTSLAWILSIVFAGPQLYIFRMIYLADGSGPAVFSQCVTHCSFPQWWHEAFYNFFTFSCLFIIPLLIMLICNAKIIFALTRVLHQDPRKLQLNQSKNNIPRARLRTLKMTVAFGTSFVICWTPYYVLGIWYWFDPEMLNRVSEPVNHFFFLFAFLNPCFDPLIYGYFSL
In words: Binding affinity for membrane receptors of rat pituitary using 125I-labeled [D-Trp6]LHRH. The procedure:
(§1) This is determined by using labelled LHRH and [D-Trp^6 ]LHRH. The assay is carried out similarly to that described by T. Kadar et al., Proc. Natl. Acad. Sci. USA, 85, 890-894 (1988).
(§2) Table 2 presents the antiovulatory activity of the claimed compounds having LHRH-inhibiting properties. The inhibitory action was determined in vivo, in 4-day cycling rats as described [A. Corbin and C. W. Beattie, Endocr. Res. Commun., 2, 1-23 (1975)]. Affinities of the claimed compounds to membrane receptors of rat pituitary and human breast cancer cells are also given in Tables 1 and 2 as determined by using [^125 I,D-Trp^6 ]LHRH.
(§3) **Affinity constants of the peptides for the first receptor class (i.e.
(§4) for high affinity binding sites) of pituitary of male rats and human
(§5) breast cancer cells, respectively, as determined by using ^125
(§6) Ilabeled [DTrp^6 ]LHRH.
(§7) breast cancer cells, respectively, were determined by using ^125

For a further assay, the system named is 4-day cycling rats. In words: In vivo antiovulatory activity in 4-day cycling rats. Details: species or system rat. Particulars: Dose 10 μg/rat. The procedure: This activity of the peptides is determined in 4-day-cycling rats as described [A. Corbin and C. W. Beattie, Endocr. Res. Commun., 2, 1-23 (1975)].
as §2
*LHRH-inhibiting potencies were assayed in 4day cyclic rats.

Assay [2] deals with T2, membrane receptors of human breast cancer cells (Homo sapiens, UniProt P30968).
T2 construct: endogenous in cells; host or cells: human breast cancer cells (membranes)
T2 sequence (P30968 1-328): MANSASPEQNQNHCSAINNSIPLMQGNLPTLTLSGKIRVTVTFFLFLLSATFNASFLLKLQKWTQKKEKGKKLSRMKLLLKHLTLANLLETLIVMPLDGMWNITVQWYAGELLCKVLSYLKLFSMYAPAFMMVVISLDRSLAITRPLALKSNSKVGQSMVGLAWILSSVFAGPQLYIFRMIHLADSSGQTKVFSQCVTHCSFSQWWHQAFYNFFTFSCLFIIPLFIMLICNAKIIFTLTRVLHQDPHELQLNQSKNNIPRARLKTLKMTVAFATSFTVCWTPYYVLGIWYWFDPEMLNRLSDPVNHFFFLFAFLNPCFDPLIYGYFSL
In words: Binding affinity for membrane receptors of human breast cancer cells using 125I-labeled [D-Trp6]LHRH. The procedure:
as §1, §2, §3, §4, §5, §6, §7

Assay [3] has as its system dispersed rat pituitary cell superfusion system. Kind of assay: LH release in dispersed rat pituitary cell superfusion system (agonistic activity). The format is cell-based. Particulars: Table 1; peptide infused 3 min, LH released compared to 3 nM LHRH. The protocol:
*LH responses to the analogues were determined in dispersed rat pituitary
cell superfusion system.

Assay [4] deals with rat mammary tumor cell line MT-4. In words: Inhibition of 3H-thymidine incorporation into DNA of MT-4 monolayer cultures. The format is cell-based. Particulars: for DPM/Well × 1000: mean +/- standard error. The procedure:
(d) Ability of peptides of Formula I to inhibit incorporation of [^3 H]thymidine into DNA of monolayer cultures the rat mammary tumor cell line MT-4
This is assayed as described [V. K. Sondak et al., Cancer Research, 44, 1725-1728 (1984); F. Holzel et al., J. Cancer Res. Clin. Oncol. 109, 217-226 (1985); M. Albert et al., J. Cancer Res. Clin. Oncol. 109, 210-216 (1985)].
To obtain information about the cytotoxic properties of the compounds, the inhibition of ^3 H-thymidine incorporation into DNA of monolayer cultures of the rat mammary tumor cell line MT-4 was studied. Experiments started with 100K MT-4 cells/plate on day 0. Dose was changed 3 times, total incubation time with the sample was 5 days. 1 μCu ^3 H-thymidine/ml was added on day 4.

[5] abbreviates: Table 2, high affinity binding sites.
[6] abbreviates: Table 1, high affinity binding sites.
Setting [7] is: DME Medium + 0% Serum, 1 ng/ml (6 × 10^-10 M).
Setting [8] is: DME Medium + 0% Serum, 10 ng/ml.
Where [9] appears, read: DME Medium + 0% Serum, 100 ng/ml.
[10] abbreviates: DME Medium + 0% Serum, 1000 ng/ml.
Setting [11] is: DME Medium + 0% Serum, 2000 ng/ml.
Setting [12] is: DME Medium + 10% Serum, 1 ng/ml (6 × 10^-10 M).
Setting [13] is: DME Medium + 10% Serum, 10 ng/ml.
Where [14] appears, read: DME Medium + 10% Serum, 100 ng/ml.
Setting [15] is: DME Medium + 10% Serum, 1000 ng/ml.
Where [16] appears, read: DME Medium + 10% Serum, 2000 ng/ml.

A word on the % Inhibition: it is how much of the control response was suppressed.

For the substance “Ac-D-Nal(2)-D-Phe(4 Cl)-D-Trp-Ser-Arg-D-Lys[(Cu^++)(POL)2 (DL-A2 pr)]-Leu-Arg-Pro-D-Ala-NH2 [Example XXIII]”, in assay [1] (setting [5]), the “Binding affinity, Ka1, for membrane receptors of pituitary” value (“Binding affinity, Ka1 … of pituitary” below) was determined as 7.622 nM⁻¹. In addition, in the assay on 4-day cycling rats, the “% Blockade of ovulation” value was determined as 40%. Moreover, the “Binding affinity, Ka1, for membrane receptors of cancer cells” value (shortened to “Binding affinity, Ka1 … of cancer cells”) in assay [2] (setting [5]) was 3.408 nM⁻¹.
For the substance “Ac-D-Nal(2)-D-Phe(4Cl)-D-Pal(3)-Ser-Arg-D-Lys[(Cu^++)(SAL)2 (A2 bu-Eac)]-Leu-Arg-Pro-D-Ala-NH2 [XXVIII]”, the “Binding affinity, Ka1 … of cancer cells” value in assay [2] (setting [5]) was determined as 0.192 nM⁻¹.
Same read-out and setting: the same measure for “Ac-D-Nal(2)-D-Phe(4Cl)-D-Pal(3)-Ser-Arg-D-Lys[(PtCl2)-A2 bu-Eac)]-Leu-Arg-Pro-D-Ala-NH2 [XXVII]”: 2.152 nM⁻¹.
For the substance “[D-Lys[(Cu^++)(SAL)2 (L-A2 pr)]^6 ]LHRH [VIA]”, the “Hormonal activity, LH responses rel. to LHRH (= 1)” value (“Hormonal activity” for short) in assay [3] is recorded as 12. Besides, the “Binding affinity, Ka1 … of pituitary” value in assay [1] (setting [6]) was found to be 3.051 nM⁻¹. Moreover, the “Binding affinity, Ka1 … of cancer cells” value in assay [2] (setting [6]) is 1.348 nM⁻¹.
For “[D-Lys[(Ni^++)(SAL)2(D-A2 pr)]^6 ]LHRH [VIIIB]” the same measures were 10, 6.457 nM⁻¹ and 3.334 nM⁻¹.
In the same order, the values of “[D-Lys[(Ni^++)(SAL)2(L-A2 pr)]^6 ]LHRH [VIIIA]” are 12, 9.710 nM⁻¹ and 5.234 nM⁻¹.
In the same order, the values of “pGlu-His-Trp-Ser-Tyr-D-Lys[(Cu^++)(CISAL)2 (DL-A2 pr)]-Leu-Arg-Pro-Gly-NH2 [Example IX]” are 10, 8.625 nM⁻¹ and 3.995 nM⁻¹.
Turning to “pGlu-His-Trp-Ser-Tyr-D-Lys[(Cu^++)(FUR)2 (DL-A2 pr)]-Leu-Arg-Pro-Gly-NH2 [XVII]”, in assay [3], the “Hormonal activity” value is 10. In addition, the “Binding affinity, Ka1 … of pituitary” value in assay [1] (setting [6]) was 1.770 nM⁻¹. Further, the “Binding affinity, Ka1 … of cancer cells” value in assay [2] (setting [6]) stood at 0.536 nM⁻¹.
In the same order, the values of “pGlu-His-Trp-Ser-Tyr-D-Lys[(Cu^++)(PEN)2 (A2 pr)]-Leu-Arg-Pro-Gly-NH2 [Example XXI]” are 10.6, 10.989 nM⁻¹ and 5.096 nM⁻¹.
In the same order, the values of “pGlu-His-Trp-Ser-Tyr-D-Lys[(Cu^++)(POL)2 (DL-A2 bu)]-Leu-Arg-Pro-Gly-NH2 [XXV]” are 5.5, 6.405 nM⁻¹ and 3.141 nM⁻¹.
For “pGlu-His-Trp-Ser-Tyr-D-Lys[(Cu^++)(POLP)2 (DL-A2 bu)]-Leu-Arg-Pro-Gly-NH2 [Example XVI]” the same measures were 1.5, 9.751 nM⁻¹ and 5.038 nM⁻¹.
As to “pGlu-His-Trp-Ser-Tyr-D-Lys[(Cu^++)(SAL)2 (A2 pr)]-Leu-Arg-Pro-Gly-NH2 [Example VII]”, in assay [3], the “Hormonal activity” value is recorded as 10. In addition, the “Binding affinity, Ka1 … of pituitary” value in assay [1] (setting [6]) was found to be 7.968 nM⁻¹. For the same substance, the “% Inhibition” value in assay [4] (setting [7]) is listed as 41%; in assay [4] (setting [8]), 42%; in assay [4] (setting [9]), 56%; in assay [4] (setting [10]), 52%; in assay [4] (setting [11]) it was 41%; in assay [4] (setting [12]), 53%. Besides, the “% Inhibition” value in assay [4] (setting [13]) stood at 61%; in assay [4] (setting [14]) it was 59%; in assay [4] (setting [15]), 65%; in assay [4] (setting [16]), 62%. Further, the “DPM/Well × 1000” value in assay [4] (setting [7]) is reported as 249 +/- 30.5 DPM/Well × 1000; in assay [4] (setting [8]), 242 +/- 32.1 DPM/Well × 1000; in assay [4] (setting [9]), 186 +/- 13.2 DPM/Well × 1000; in assay [4] (setting [10]), 204 +/- 40.9 DPM/Well × 1000; in assay [4] (setting [11]) it was 249 +/- 45.1 DPM/Well × 1000; in assay [4] (setting [12]), 48 +/- 8.6 DPM/Well × 1000. The “DPM/Well × 1000” value is 40 +/- 6.7 DPM/Well × 1000 in assay [4] (setting [13]), 42 +/- 10.4 DPM/Well × 1000 in assay [4] (setting [14]), 36 +/- 5.1 DPM/Well × 1000 in assay [4] (setting [15]) and 39 +/- 4.6 DPM/Well × 1000 in assay [4] (setting [16]). Also, the “inhibition of 3H-thymidine incorporation into DNA (in words)” value in assay [4] (concentration of 6×10^-10 M) is on record as “strong inhibitory effect”. Also, in assay [2] (setting [6]), the “Binding affinity, Ka1 … of cancer cells” value came to 3.589 nM⁻¹.
For the substance “pGlu-His-Trp-Ser-Tyr-D-Lys[(Cu^++)(SAL)2 (DL-A2 bu)]-Leu-Arg-Pro-Gly-NH2 [XIV]”, in assay [3], the “Hormonal activity” value turned out to be 25. Also, the “Binding affinity, Ka1 … of pituitary” value in assay [1] (setting [6]) came out at 5.589 nM⁻¹. Moreover, the “Binding affinity, Ka1 … of cancer cells” value in assay [2] (setting [6]) is 1.628 nM⁻¹.
Regarding “pGlu-His-Trp-Ser-Tyr-D-Lys[(Ni^++)(CISAL)2 (DL-A2 pr)]-Leu-Arg-Pro-Gly-NH2 [Example X]”, the “Hormonal activity” value in assay [3] amounted to 4. The “Binding affinity, Ka1 … of pituitary” value in assay [1] (setting [6]) stood at 4.513 nM⁻¹. Moreover, the “Binding affinity, Ka1 … of cancer cells” value in assay [2] (setting [6]) was 2.236 nM⁻¹.
In the same order, the values of “pGlu-His-Trp-Ser-Tyr-D-Lys[(PtCl2)(DL-A2 pr)]-Leu-Arg-Pro-Gly-NH2 [Example III]” are 55, 3.285 nM⁻¹ and 1.743 nM⁻¹.
In the same order, the values of “pGlu-His-Trp-Ser-Tyr-D-Lys[Cu^++)(POL)2 (DL-A2 pr)]-Leu-Arg-Pro-Gly-NH2 [XVIII]” are 9, 5.817 nM⁻¹ and 3.005 nM⁻¹.
For “pGlu-His-Trp-Ser-Tyr-D-Lys[Cu^++)(POLP)2 (A2 pr)]-Leu-Arg-Pro-Gly-NH2 [XIX]” the same measures were 0.3, 8.676 nM⁻¹ and 4.528 nM⁻¹.
